In PMC3545969, “Mutagenicity and antimutagenicity of (−)-hinokinin a trypanosomicidal compound measured by Salmonella microsome and comet assays” (BMC Complementary and Alternative Medicine, 2012):
Where two headings read alike, the source gives them in different places. Marks after values point to notes of the source that are not given here.

Experiments:
[1] = tested on: Salmonella typhimurium TA102; test: Ames test, antimutagenicity assay, TA102; format: cell-based
[2] = tested on: Salmonella typhimurium TA98
[3] = tested on: Salmonella typhimurium TA100
[4] = tested on: Salmonella typhimurium TA97a; settings: for % inhibition / Number of revertants(M ± SD)/ plate: TA 97a
[5] = tested on: S. typhimurium strains TA98, TA100, TA102 and TA97a; settings: HK 9.7 - 78.0 μg/plate, +S9 and −S9
epimastigote forms = settings: compared with benznidazole; cited from earlier work
[6] = tested on: Chinese hamster lung fibroblast V79 cells; parameters: method as in PMID 20452459; settings: cited from earlier work
[7] = TA 102, + S9, HK 19.5 μg/plate + 2-AF 10.0 μg/plate
[8] = TA 102, + S9, HK 39.0 μg/plate + 2-AF 10.0 μg/plate
[9] = TA 102, + S9, HK 58.5 μg/plate + 2-AF 10.0 μg/plate
[10] = TA 102, + S9, HK 78.0 μg/plate + 2-AF 10.0 μg/plate
[11] = TA 102, - S9, HK 58.5 μg/plate + MMC 0.5 μg/plate
[12] = TA 102, - S9, HK 78.0 μg/plate + MMC 0.5 μg/plate
[13] = TA 100, + S9, HK 19.5 μg/plate + AFB1 0.5 μg/plate
[14] = TA 100, + S9, HK 39.0 μg/plate + AFB1 0.5 μg/plate
[15] = TA 100, + S9, HK 58.5 μg/plate + AFB1 0.5 μg/plate
[16] = TA 100, + S9, HK 78.0 μg/plate + AFB1 0.5 μg/plate
[17] = TA 100, + S9, HK […] + AFB1 0.5 μg/plate
[18] = TA 100, − S9, HK 19.5 μg/plate + SA 1.25 μg/plate
[19] = TA 100, − S9, HK 39.0 μg/plate + SA 1.25 μg/plate
[20] = TA 100, − S9, HK 58.5 μg/plate + SA 1.25 μg/plate
[21] = TA 100, − S9, HK 78.0 μg/plate + SA 1.25 μg/plate
[22] = TA 100, − S9, HK […] + SA 1.25 μg/plate
[23] = + S9, HK 19.5 μg/plate + 2-AA 1.25 μg/plate
[24] = + S9, HK 39.0 μg/plate + 2-AA 1.25 μg/plate
[25] = + S9, HK 58.5 μg/plate + 2-AA 1.25 μg/plate
[26] = + S9, HK 78.0 μg/plate + 2-AA 1.25 μg/plate
[27] = + S9, HK […] + 2-AA 1.25 μg/plate

O=C1OC[C@H](Cc2ccc3c(c2)OCO3)[C@H]1Cc1ccc2c(c1)OCO2 [HK, (−)-hinokinin]
Number of revertants(M ± SD)/ plate [1]: 852 + 21 revertants/plate | % inhibition [1, 7]: 42*** % | Number of revertants(M ± SD)/ plate [1, 7]: 855 + 22 revertants/plate | % inhibition [1, 8]: 46*** % | Number of revertants(M ± SD)/ plate [1, 8]: 820 + 19 revertants/plate | % inhibition [1, 9]: 52*** % | Number of revertants(M ± SD)/ plate [1, 9]: 754 + 9 revertants/plate | % inhibition [1, 10]: 52*** % | Number of revertants(M ± SD)/ plate [1, 10]: 757 + 29 revertants/plate | % inhibition ([1]; TA 102, + S9, HK […] + 2-AF 10.0 μg/plate): 42*** % | decrease in the mutagenicity of 2-AF ([1]; TA102, +S9, dose not given): 52% | Number of revertants(M ± SD)/ plate ([1]; TA 102, - S9, HK 19.5 μg/plate + MMC 0.5 μg/plate): 1201 + 23 revertants/plate | Number of revertants(M ± SD)/ plate ([1]; TA 102, - S9, HK 39.0 μg/plate + MMC 0.5 μg/plate): 1317 + 14 revertants/plate | % inhibition [1, 11]: 18* % | Number of revertants(M ± SD)/ plate [1, 11]: 1017 + 56 revertants/plate | % inhibition [1, 12]: 22* % | Number of revertants(M ± SD)/ plate [1, 12]: 979 + 51 revertants/plate | Number of revertants(M ± SD)/ plate ([1]; TA 102, - S9, HK […] + MMC 0.5 μg/plate): 1236 + 17 revertants/plate | effect on mutagenesis induced by MMC ([1]; TA102, absence of metabolic activation): did not reduce mutagenesis | MI (mutagenicity index) ([2]; TA 98, + S9, HK 19.5 μg/plate): 1.1 | Number of revertants(M ± SD)/ plate ([2]; TA 98, + S9, HK 19.5 μg/plate): 34 ± 3 revertants/plate | MI (mutagenicity index) ([2]; TA 98, + S9, HK 39.0 μg/plate): 1.0 | Number of revertants(M ± SD)/ plate ([2]; TA 98, + S9, HK 39.0 μg/plate): 33 ± 4 revertants/plate | MI (mutagenicity index) ([2]; TA 98, + S9, HK 58.5 μg/plate): 0.8 | Number of revertants(M ± SD)/ plate ([2]; TA 98, + S9, HK 58.5 μg/plate): 28 ± 1 revertants/plate | MI (mutagenicity index) ([2]; TA 98, + S9, HK 78.0 μg/plate): 1.0 | Number of revertants(M ± SD)/ plate ([2]; TA 98, + S9, HK 78.0 μg/plate): 31 ± 2 revertants/plate | MI (mutagenicity index) ([2]; TA 98, - S9, HK 19.5 μg/plate): 1.0 | Number of revertants(M ± SD)/ plate ([2]; TA 98, - S9, HK 19.5 μg/plate): 23 ± 3 revertants/plate | MI (mutagenicity index) ([2]; TA 98, - S9, HK 39.0 μg/plate): 1.1 | Number of revertants(M ± SD)/ plate ([2]; TA 98, - S9, HK 39.0 μg/plate): 25 ± 3 revertants/plate | MI (mutagenicity index) ([2]; TA 98, - S9, HK 58.5 μg/plate): 1.1 | Number of revertants(M ± SD)/ plate ([2]; TA 98, - S9, HK 58.5 μg/plate): 25 ± 2 revertants/plate | MI (mutagenicity index) ([2]; TA 98, - S9, HK 78.0 μg/plate): 1.1 | Number of revertants(M ± SD)/ plate ([2]; TA 98, - S9, HK 78.0 μg/plate): 24 ± 5 revertants/plate | % inhibition [3, 13]: 45*** % | Number of revertants(M ± SD)/ plate [3, 13]: 976 + 18 revertants/plate | % inhibition [3, 14]: 47*** % | Number of revertants(M ± SD)/ plate [3, 14]: 943 + 11 revertants/plate | % inhibition [3, 15]: 71*** % | Number of revertants(M ± SD)/ plate [3, 15]: 612 + 33 revertants/plate | % inhibition [3, 16]: 89*** % | Number of revertants(M ± SD)/ plate [3, 16]: 354 + 22 revertants/plate | % inhibition [3, 17]: 30** % | Number of revertants(M ± SD)/ plate [3, 17]: 1183 + 30 revertants/plate | effect on mutation induced by AFB1 ([3]; TA100, +S9): did inhibit mutation induced by the alkylating agent AFB1 | effect on mutagenesis induced by SA ([3]; TA100, absence of metabolic activation): did not reduce mutagenesis | % inhibition [3, 18]: 9* % | Number of revertants(M ± SD)/ plate [3, 18]: 1112 + 34 revertants/plate | % inhibition [3, 19]: 5* % | Number of revertants(M ± SD)/ plate [3, 19]: 1169 + 32 revertants/plate | % inhibition [3, 20]: 7* % | Number of revertants(M ± SD)/ plate [3, 20]: 1145 + 16 revertants/plate | % inhibition [3, 21]: 3* % | Number of revertants(M ± SD)/ plate [3, 21]: 1181 + 41 revertants/plate | % inhibition [3, 22]: 7* % | Number of revertants(M ± SD)/ plate [3, 22]: 1139 + 20 revertants/plate | % inhibition [4, 23]: 45*** % | Number of revertants(M ± SD)/ plate [4, 23]: 659 + 41 revertants/plate | % inhibition [4, 24]: 49*** % | Number of revertants(M ± SD)/ plate [4, 24]: 628 + 16 revertants/plate | % inhibition [4, 25]: 67*** % | Number of revertants(M ± SD)/ plate [4, 25]: 456 + 13 revertants/plate | % inhibition [4, 26]: 60*** % | Number of revertants(M ± SD)/ plate [4, 26]: 523 + 86 revertants/plate | % inhibition [4, 27]: 43*** % | Number of revertants(M ± SD)/ plate [4, 27]: 682 + 52 revertants/plate | Number of revertants(M ± SD)/ plate ([4]; - S9, HK 19.5 μg/plate + NOPD 10.0 μg/plate): 948 + 24 revertants/plate | Number of revertants(M ± SD)/ plate ([4]; - S9, HK 39.0 μg/plate + NOPD 10.0 μg/plate): 979 + 84 revertants/plate | Number of revertants(M ± SD)/ plate ([4]; - S9, HK 58.5 μg/plate + NOPD 10.0 μg/plate): 1006 + 54 revertants/plate | Number of revertants(M ± SD)/ plate ([4]; - S9, HK 78.0 μg/plate + NOPD 10.0 μg/plate): 1026 + 75 revertants/plate | Number of revertants(M ± SD)/ plate ([4]; - S9, HK […] + NOPD 10.0 μg/plate): 934 + 33 revertants/plate | effect on mutagenesis induced by NOPD ([4]; TA97a, absence of metabolic activation): did not reduce mutagenesis | potentiation of NOPD-induced effect (revertants vs positive control alone) ([4]; strain 97a, −S9, HK + NOPD): potentiated NOPD -induced clastogenicity | mutagenic activity (number of revertant colonies relative to the negative control) [5]: did not induce any increase in the number of revertant colonies | trypanosomicidal activity against epimastigote forms (epimastigote forms): higher trypanosomicidal activity than benznidazole | genotoxic effect, micronucleus test ([6]; HK alone): no genotoxic effect | effect on chromosome damage caused by MMS, micronucleus test [6]: reduced the chromosome damage caused by MMS | effect on DXR-induced clastogenicity, micronucleus test ([6]; higher concentrations of HK): potentiator of DXR-induced clastogenicity | effect on DXR-induced clastogenicity, micronucleus test ([6]; lower concentrations of HK): reduction in DXR-induced clastogenicity
